Results as given in patent US4335249A, “Herbicidal diphenyl ethers, sulfides, sulfoxides and sulfones” (Rohm and Haas Company, priority 1976, dated 1982).

Columns and labels:
Type in all cases: in vivo
soybean (Glycine max) [1] = test: Preemergence herbicidal activity, soybean
Procedure: (§1) Using the procedure described below, compounds of the invention are evaluated for control of several of the following plant species:
(§2) The following est procedure is employed. Seeds of selected crops and weeds are planted in soil in flats. For preemergence tests, the flats are treated with the test compound immediately after the planting. For postemergence tests, the seeds are allowed to germinate, and after two weeks the flats are treated with the test compound. The compound to be evaluated is dissolved in acetone, diluted with water, and sprayed over the flats using a carrier volume equivalent to 50 gallons per acre at the rate of application (pounds per acre, lb/A.) specified in the tables. About two weeks after the application of the test compound, the state of growth of the plants is observed and the phytotoxic effect of the compound is evaluated. Tables III and IV give the average percent control achieved by test compounds in terms of the percent of the plants which are killed by the compounds.

[2] = system: barnyardgrass (Echinochloa crusgalli); test: Postemergence herbicidal activity, barnyardgrass; conditions: Postemergence
Outline: (§3)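 Acetone solution diluted w/ water; spray, carrier 50 gal/acre equivalent; rate in lb/A. Pre: flats sprayed right after sowing. Post: sprayed 2 wk after germination. Weed control scored.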

[3] = system: crabgrass (Digitaria spp.); test: Preemergence herbicidal activity, crabgrass
Procedure: as §1, §2

wild oats (Avena fatua) [4] = test: Postemergence herbicidal activity, wild oats; conditions: Postemergence
Outline: (§4)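 Compound in acetone/water sprayed on soil flats at 50 gal/acre carrier volume, at rates given in lb/A. Preemergence: applied right after planting; postemergence: applied two weeks after germination. Scored about two weeks later as average percent of plants killed.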

[5] = system: tomato (Lycopersicon esculentum); test: Preemergence herbicidal activity, tomato; conditions: Preemergence
Outline: as §4

wild oats (Avena fatua) [6] = test: Preemergence herbicidal activity, wild oats; conditions: Preemergence
Outline: as §4

rice (Oryza sativa) [7] = test: Preemergence herbicidal activity, rice
Procedure: as §1, §2

[8] = system: downybrome (Bromus tectorum); test: Preemergence herbicidal activity, downybrome; conditions: Preemergence
Outline: as §4

corn (Zea mays) = test: Preemergence herbicidal activity, corn
Procedure: as §1, §2

[9] = system: barnyardgrass (Echinochloa crusgalli); test: Preemergence herbicidal activity, barnyardgrass; conditions: Preemergence
Outline: as §3

foxtail (Setaria spp.) [10] = test: Preemergence herbicidal activity, foxtail; conditions: Preemergence
Outline: as §4

wheat (Triticum sativum) [11] = test: Postemergence herbicidal activity, wheat
Procedure: as §1, §2

rice (Oryza sativa) [12] = test: Postemergence herbicidal activity, rice
Procedure: as §1, §2

[13] = system: tomato (Lycopersicon esculentum); test: Postemergence herbicidal activity, tomato; conditions: Postemergence
Outline: as §4

wheat (Triticum sativum) [14] = test: Preemergence herbicidal activity, wheat
Procedure: as §1, §2

[15] = system: downybrome (Bromus tectorum); test: Postemergence herbicidal activity, downybrome; conditions: Postemergence
Outline: as §4

foxtail (Setaria spp.) [16] = test: Postemergence herbicidal activity, foxtail; conditions: Postemergence
Outline: as §4

soybean (Glycine max) [17] = test: Postemergence herbicidal activity, soybean
Procedure: as §1, §2

[18] = system: velvetleaf (Abutilon theophrasti); test: Preemergence herbicidal activity, velvetleaf; conditions: Preemergence
Outline: as §4

Compound: CCOC(=O)C(C)Oc1ccc(Oc2ccc(C(F)(F)F)cc2Cl)cc1 (stereo not drawn) [Example 1, Ethyl 2-[4-(2-chloro-4-trifluoromethylphenoxy)phenoxy] propionate]
- % Control, Soybean (soybean (Glycine max) [1]; 1/2 lb/A (Table III)): 0%
- % Control, Soybean (soybean (Glycine max) [1]; 1 lb/A (Table III)): 0%
- % Control, Soybean (soybean (Glycine max) [1]; 2 lb/A (Table III)): 0%
- % control, Barnyardgrass ([2]; 1/2 lb/A (Table III)): 100%
- % control, Barnyardgrass ([2]; 1 lb/A (Table III)): 100%
- % control, Barnyardgrass ([2]; 2 lb/A (Table III)): 100%
- % Control, Crabgrass ([3]; 1/2 lb/A (Table III)): 100%
- % Control, Crabgrass ([3]; 1 lb/A (Table III)): 100%
- % Control, Crabgrass ([3]; 2 lb/A (Table III)): 100%
- % Control, Wild Oats (wild oats (Avena fatua) [4]; 1/2 lb/A (Table III)): 100%
- % Control, Wild Oats (wild oats (Avena fatua) [4]; 1 lb/A (Table III)): 100%
- % Control, Wild Oats (wild oats (Avena fatua) [4]; 2 lb/A (Table III)): 100%
- % control, Tomato ([5]; 1/2 lb/A (Table III)): 0%
- % control, Tomato ([5]; 1 lb/A (Table III)): 0%
- % control, Tomato ([5]; 2 lb/A (Table III)): 0%
- % Control, Wild Oats (wild oats (Avena fatua) [6]; 1/2 lb/A (Table III)): 0%
- % Control, Wild Oats (wild oats (Avena fatua) [6]; 1 lb/A (Table III)): 60%
- % Control, Wild Oats (wild oats (Avena fatua) [6]; 2 lb/A (Table III)): 99%
- % Control, Rice (rice (Oryza sativa) [7]; 1/2 lb/A (Table III)): 0%
- % Control, Rice (rice (Oryza sativa) [7]; 1 lb/A (Table III)): 80%
- % Control, Rice (rice (Oryza sativa) [7]; 2 lb/A (Table III)): 100%
- % control, Downybrome ([8]; 1/2 lb/A (Table III)): 0%
- % control, Downybrome ([8]; 1 lb/A (Table III)): 80%
- % control, Downybrome ([8]; 2 lb/A (Table III)): 90%
- % Control, Corn (corn (Zea mays); 1/2 lb/A (Table III)): 0%
- % Control, Corn (corn (Zea mays); 1 lb/A (Table III)): 60%
- % Control, Corn (corn (Zea mays); 2 lb/A (Table III)): 99%
- % control, Barnyardgrass ([9]; 1/2 lb/A (Table III)): 99%
- % control, Barnyardgrass ([9]; 1 lb/A (Table III)): 100%
- % control, Barnyardgrass ([9]; 2 lb/A (Table III)): 100%
- % control, Foxtail (foxtail (Setaria spp.) [10]; 1/2 lb/A (Table III)): 100%
- % control, Foxtail (foxtail (Setaria spp.) [10]; 1 lb/A (Table III)): 100%
- % control, Foxtail (foxtail (Setaria spp.) [10]; 2 lb/A (Table III)): 100%
- % Control, Wheat (wheat (Triticum sativum) [11]; 1/2 lb/A (Table III)): 80%
- % Control, Wheat (wheat (Triticum sativum) [11]; 1 lb/A (Table III)): 90%
- % Control, Wheat (wheat (Triticum sativum) [11]; 2 lb/A (Table III)): 95%
- % Control, Rice (rice (Oryza sativa) [12]; 1/2 lb/A (Table III)): 70%
- % Control, Rice (rice (Oryza sativa) [12]; 1 lb/A (Table III)): 99%
- % Control, Rice (rice (Oryza sativa) [12]; 2 lb/A (Table III)): 90%
- % control, Tomato ([13]; 1/2 lb/A (Table III)): 10%
- % control, Tomato ([13]; 1 lb/A (Table III)): 30%
- % control, Tomato ([13]; 2 lb/A (Table III)): 80%
- % Control, Wheat (wheat (Triticum sativum) [14]; 1/2 lb/A (Table III)): 0%
- % Control, Wheat (wheat (Triticum sativum) [14]; 1 lb/A (Table III)): 0%
- % Control, Wheat (wheat (Triticum sativum) [14]; 2 lb/A (Table III)): 0%
- % control, Downybrome ([15]; 1/2 lb/A (Table III)): 70%
- % control, Downybrome ([15]; 1 lb/A (Table III)): 80%
- % control, Downybrome ([15]; 2 lb/A (Table III)): 90%
- % control, Foxtail (foxtail (Setaria spp.) [16]; 1/2 lb/A (Table III)): 100%
- % control, Foxtail (foxtail (Setaria spp.) [16]; 1 lb/A (Table III)): 100%
- % control, Foxtail (foxtail (Setaria spp.) [16]; 2 lb/A (Table III)): 100%
- % Control, Soybean (soybean (Glycine max) [17]; 1/2 lb/A (Table III)): 20%
- % Control, Soybean (soybean (Glycine max) [17]; 1 lb/A (Table III)): 30%
- % Control, Soybean (soybean (Glycine max) [17]; 2 lb/A (Table III)): 40%
- % control, Velvetleaf ([18]; 1/2 lb/A (Table III)): 0%
- % control, Velvetleaf ([18]; 1 lb/A (Table III)): 0%
- % control, Velvetleaf ([18]; 2 lb/A (Table III)): 0%
